In patent US20230390270A1, “METHODS FOR TREATING REMITTING MULTIPLE SCLEROSIS” (BIOGEN MA INC., priority 2020, published 2023):

Columns and labels:
[1] = tested on: human OPC-rat DRG co-culture; test: Human OPC-rat DRG co-culture myelination (MBP ICC); assay type: cell-based; conditions: 0.02, 0.2, or 2 μM vs DMSO control
Method: Embryonic dorsal root ganglia (DRG), dissected from embryonic day 14 (E14) to day 17 (E17) Sprague Dawley rats, were plated on poly-L-lysine (100 μg/ml)-coated cover slips for 2 weeks and grown in Neurobasal medium supplemented with B27 (Life Technologies). To remove proliferating glial cells, cultures were pulsed twice with fluorodeoxyuridine (20 μM) from days 2-6 and from days 8 to 10. Then human OPCs, prepared as described above, were added to DRG neuron drop cultures. The culture media for rat OPC-DRG co-culture is Neurobasal medium supplemented with B27 and 100 ng/ml NGF with fresh compounds changed twice per week. The culture media for human OPC-rat DRG co-culture is the proliferation media for human OPCs without purmorphamine and FGF/PDGF. Compound 1 (0.02, 0.2, or 2 μM) or DMSO control treatment started 1 day after OPCs were added to DRG culture. To visualize myelination, cultures were fixed by 4% paraformaldehyde (PFA) and labeled with anti-myelin basic protein (MBP) antibodies to identify changes in myelination by ICC.

[2] = tested on: LPC induced corpus callosum demyelination; test: LPC induced corpus callosum demyelination model; assay type: in vivo; conditions: rat LPC corpus callosum model
[3] = tested on: circulating cholesterol; test: 28-day multiple-dose study in healthy volunteers: circulating cholesterol and serum sterols; assay type: in vivo, human
Method: (§1) Forty-two healthy volunteers received Compound 1 QD for 28 days (or before early withdrawal), with 6 individual participants per cohort receiving 1 mg (Cohort 1), 3 mg (Cohort 2), 10 mg (Cohort 3), 30 mg (Cohort 4), 60 mg loading dose with 10 mg maintenance dosing (Cohort 5) Compound 1, 60 mg (Cohort 6), or 90 mg loading dose on Day 1 and Day 2 with 30 mg maintenance dosing (Cohort 7). There were also 14 participants who received placebo in the study; 1 participant in Cohort 4 was misdosed on Day 19 and appeared to have received at least one 30 mg dose of Compound 1. The following protocol deviations were reported for participants in Cohorts 1 through 5: they received predose water ad lib (not restricted for 1 hour before and 1 hour after dose) and a meal administered 30 minutes postdose (not 4 hours postdose). A total of 49 participants completed treatment, including 37 participants who received active treatment.
(§2) Participants received the first dose of study treatment (Compound 1 or placebo) on Day 1 and continued to receive once-daily study treatment through Day 28. Participants remained in the clinic throughout the dosing period. Participants were discharged on Day 29 after completing all assessments.
Blood was periodically withdrawn from each volunteer and immediately stored at −80° C. For measuring metabolite concentrations in human serum, the samples were centrifuged and the resulting supernatant was used for further analysis.
Free oxysterols were extracted from the samples with methanol using the Biocrates Kit filter plate. The plate was loaded with an internal standard mixture beforehand. The metabolite concentrations were determined by UHPLC-MS/MS with multiple reaction monitoring (MRM) in a positive mode using a SCIEX API 5500 QTRAP® (AB SCIEX, Darmstadt, German) instrument with electrospray ionization (ESI). Data were quantitated using appropriate mass spectrometry software and imported in Biocrates Met/DQ™ software for further analysis.

[4] = tested on: human iPSC-derived OPCs; test: Human iPSC-derived OPC differentiation (MBP+ cells); assay type: cell-based; conditions: 0.02 and 0.2 μM, 40 days
Method: Human induced pluripotent stem cell (iPSC) derived OPCs were maintained in proliferation media, composed of advanced DMEM-F12 supplemented with N2, B27, Glutamax, […] heparin (Sigma), 1 μM purmorphamine (Merck), 20 ng/ml FGF/PDGFa (Peprotech), 10 ng/ml IGF (Peprotech), and 60 ng/ml T3 (Sigma). To allow OPC differentiation, purmorphamine and FGF/PDGF were removed from the culture media. Compound 1 (0.02 and 0.2 μM) was incubated with human iPSC-derived OPCs in the differentiation media for 40 days.

[5] = target: T1, sphingosine-1-phosphate receptor 4 (S1P4) (Homo sapiens, UniProt O95977); conditions: cited from earlier work
T1 sequence (O95977 1-384): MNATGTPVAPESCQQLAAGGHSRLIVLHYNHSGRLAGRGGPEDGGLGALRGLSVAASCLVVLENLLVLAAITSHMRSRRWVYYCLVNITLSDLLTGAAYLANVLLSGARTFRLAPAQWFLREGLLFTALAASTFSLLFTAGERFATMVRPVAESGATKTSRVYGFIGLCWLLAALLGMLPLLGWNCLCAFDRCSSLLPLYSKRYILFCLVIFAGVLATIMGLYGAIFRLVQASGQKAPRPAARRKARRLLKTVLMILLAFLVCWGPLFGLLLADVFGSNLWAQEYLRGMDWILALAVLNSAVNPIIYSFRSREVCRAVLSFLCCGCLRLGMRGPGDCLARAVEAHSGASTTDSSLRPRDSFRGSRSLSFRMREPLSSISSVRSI

[6] = tested on: rat OPCs; test: Sterol metabolite levels in rat OPC cultures (Metabolon HD4); assay type: cell-based; conditions: rat OPC culture
Method: Enriched populations of oligodendrocytes from female Sprague Dawley postnatal day 2 (P2) rats were grown in culture. Briefly, the forebrain was dissected and placed in Hank's buffered salt solution (HBSS) (Life technologies). The tissue was cut into 1 mm fragments and incubated at 37° C. for 15 min in 0.01% trypsin and 10 μg/ml DNase. Dissociated cells were plated on poly-D-lysine (PDL)-coated T75 tissue culture flasks and grown at 37° C. for 10 days in Dulbecco's Modified Eagle Medium (DMEM) with 20% fetal calf serum (Life technologies). Oligodendrocyte precursors (A2B5+) were collected by shaking the flask overnight at 200 rpm at 37° C., resulting in a 95% pure population. Cultures were maintained in a defined growth medium (high glucose DMEM, 0.1% BSA, 50 ug/ml Apo-transferrin, 5 ug/ml insulin, 30 nM sodium selenite, 10 nM biotin and hydrocortisone) with 10 ng/ml fibroblast growth factor/platelet-derived growth factor (FGF/PDGF) (Peprotech) for 2-3 days. For assessing the ability of Compound 1 to promote the differentiation of rat A2B5+ progenitor cells into mature myelin basic protein positive (MBP+) myelinating oligodendrocytes, A2B5+ cells were plated into 10-cm PDL coated culture plates in FGF/PDGF free growth medium supplemented with 10 ng/ml CNTF and 15 nM T3 and were immediately treated for with Compound 1. The cell pellets were collected at 24 hours and 72 hours in culture and stored at −80° C. The cell pellets were subsequently shipped to Metabolon (Morrisville, NC, USA) and maintained at −80° C. during shipping and storage until processed. The cell pellet samples were extracted with methanol under vigorous shaking for 2 min (Glen Mills GenoGrinder 2000) to precipitate protein and dissociate small molecules bound to protein or trapped in the precipitated protein matrix, followed by centrifugation to recover chemically diverse metabolites. The resulting extract were next aliquot and analyzed on Metabolon's HD4 platform. Several types of quality control samples, including recovery standards added prior to extraction, technical replicates from a pool combined from each experimental sample, process and solvent blanks, and spiked a cocktail of QC standards, were applied during sample preparation and analysis for quality assessment and filtering failed samples.

[7] = tested on: LPC induced spinal cord demyelination; test: LPC induced spinal cord demyelination model; assay type: in vivo, rat; conditions: oral, daily from Day 3, sacrifice Day 9
[8] = Plasma concentration of Compound 1 in healthy volunteers; assay type: in vivo, human
Method: as §1
Based on these observations, a population PK/PD model was developed using Monolix to describe circulating cholesterol concentration as a function of plasma concentration of Compound 1 and exposure. The model was developed from cholesterol data from the study described above (Study 1) as well as two additional clinical studies (Study 2 and Study 3) in healthy volunteers. […]

[9] = tested on: cuprizone demyelination in the corpus callosum; test: Cuprizone/rapamycin demyelination model; assay type: in vivo, mouse; conditions: oral gavage daily in the last 2 weeks of cuprizone/rapamycin treatment
Method: Nine week-old C57/BL6 mice were fed with chow pellets containing 0.3% cuprizone (Harlan) and injected with rapamycin intraperitoneally for 6 weeks (10 mg/kg, 5 days/week). Animals were treated with Compound 1 by oral gavage daily in the last 2 weeks of cuprizone/rapamycin treatment. Animals were sacrificed at the end of the last treatment and brains were dissected to determine the effect of Compound 1 on remyelination in the corpus callosum (white matter) and cerebral cortex regions. Coronal slices (septostriatal section, 1 mm thickness) through the corpus callosum were cut, then cut on the midsagittal plane and embedded in epon, oriented to visualize the entire cross-section of the midsagittal corpus callosum. Myelinated axons in the corpus callosum lesions were quantified by toluidine blue staining. ** p<0.01, *** p<0.001. […] Error bars denote the standard error of the mean. N=39 for the study.

[10] = tested on: neutrophils; test: Neutrophil and monocyte counts in the healthy volunteer study; assay type: in vivo, human
Method: as §1, §2

[11] = tested on: circulating cholesterol; test: Population PK/PD model (Monolix) of circulating cholesterol vs Compound 1 plasma concentration; design: species or system human
Description: Based on these observations, a population PK/PD model was developed using Monolix to describe circulating cholesterol concentration as a function of plasma concentration of Compound 1 and exposure. The model was developed from cholesterol data from the study described above (Study 1) as well as two additional clinical studies (Study 2 and Study 3) in healthy volunteers. In Study 2, thirty healthy volunteers received a single oral dose of Compound 1 with 6 individual participants per cohort receiving 3 mg (Cohort 1), 10 mg (Cohort 2), 30 mg (Cohort 3), 60 mg (Cohort 4), 100 mg (Cohort 5). There were also 9 participants who received placebo in the study. In Study 3, 8 healthy adult volunteers received a single dose of 30 mg of Compound 1.

[12] = tested on: rat A2B5+ oligodendrocytes / DRG neuron co-culture; test: OPC/DRG co-culture myelination assay (MBP Western blot); assay type: cell-based; conditions: 13 days co-culture
Method: Embryonic dorsal root ganglia (DRG) dissected from embryonic day 14 (E14) to day 17 (E17) Sprague Dawley rats, were plated on poly-L-lysine (100 μg/ml)-coated cover slips for 2 weeks and grown in Neurobasal medium supplemented with B27 (Life technologies). To remove proliferating glial cells, cultures were pulsed twice with fluorodeoxyuridine (20 μM) from days 2-6 and from days 8-10. Then rat A2B5+ oligodendrocytes were added to DRG neuron drop cultures in the presence or absence of compounds at 37° C. with 5% CO2 for 13 days. The culture media (Neurobasal medium supplemented with B27 and 100 ng/ml nerve growth factor (NGF)) with fresh compounds were changed twice per week. Myelination is determined by Western blotting to quantify MBP level.

steady-state concentration of Compound 1 ([8]; daily dose of 60 mg): about 3 μg/mL
time of increase to steady-state concentrations of Compound 1 in plasma ([8]; daily dosing): approximately 15 days
other participants with decline in absolute neutrophil count ([10]; Cohort 4, 30 mg): 6 participants
other participants with decline in absolute neutrophil count ([10]; Cohort 5, 60 mg loading dose followed by 10 mg maintenance dose): 6 participants
other participants with decline in absolute neutrophil count ([10]; Cohort 6): 5 participants
other participants with decline in absolute neutrophil count ([10]; Cohort 7): 5 participants
other participants with decline in absolute neutrophil count ([10]; all doses ≥30 mg): 22 participants
absolute neutrophil count from baseline ([10]; doses ≥30 mg): dose-dependent decline
extent of neutrophil count decline ([10]; low doses <30 mg, Cohorts 1, 2, and 3): indistinguishable from placebo control
participants who developed CTCAE grade 3 neutropenia ([10]; whole study of Example 1): Two of 56
Structure (SMILES): CC[C@H]1CC[C@@H](Oc2ccc3cc(CN4CCC(C(=O)O)CC4)ccc3c2)CC1 [Compound 1, 1-((6-(((1s,4s)-4-ethylcyclohexyl)oxy)naphthalen-2-yl)methyl)piperidine-4-carboxylic acid]
amount of MBP+ myelinated axon clusters relative to control [1]: increased
remyelination [2]: enhanced remyelination
7-dehydrocholesterol (7-DHC) level ([3]; healthy human volunteers): causes accumulation of 7-dehydrocholesterol
average decrease in total cholesterol ([3]; healthy volunteers, 60 mg dose, Study 1): approximately 20%
total circulating cholesterol ([3]; healthy volunteers, QD over 28 days, FIG. 1 (10, 30, 60 mg per day vs placebo)): gradual, time- and dose-dependent reduction
number of MBP+ cells relative to control [4]: increased
S1P4 activity [5]: known inhibitor
7-DHC vs vehicle control ([6]; 24 hours): 8.3 folds
cholesterol vs vehicle control ([6]; 24 hours): 0.64 folds
desmosterol vs vehicle control ([6]; 24 hours): 0.44 folds
7-DHC vs vehicle control ([6]; 72 hours): 12.86 folds
cholesterol vs vehicle control ([6]; 72 hours): insignificant change
desmosterol vs vehicle control ([6]; 72 hours): 0.4 folds
dose for 90% of maximum observed biologic effect (ED90) [7]: 3 mg/kg
minimal efficacious dose (remyelinated axon fibers in the lesions) [7]: 0.3 mg/kg
remyelination (myelinated axons, toluidine blue) [7]: enhanced remyelination in a dose dependent manner
remyelination (myelinated axons in corpus callosum lesions) [9]: dose dependent enhancement of remyelination
absolute monocyte counts ([10]; 60 mg QD, except the patient who discontinued): remained throughout the study in the normal range
participants with neutropenia AE leading to discontinuation ([10]; Cohort 6, 60 mg): 1 participant
participants with neutropenia AE leading to discontinuation ([10]; Cohort 7, 90 mg loading dose followed by 30 mg maintenance dose): 1 participant
concentration of circulating cholesterol in the model ([11]; by daily dose): reduced at all daily doses higher than 10 mg
predicted decrease in circulating cholesterol ([11]; model prediction, 60 mg QD): approximately 35%
EC50 for reduction in circulating cholesterol concentration ([11]; population PK/PD model, plasma concentration of Compound 1): about 3 μg/mL
myelination (MBP level by Western blotting) [12]: promoted myelination in OPC/DRG co-culture assay in a dose-dependent manner
